Measured values as given in US11643431B2, “Uses of hyaluronan conjugate” (priority 2020, dated 2023).

Columns and labels:
SARS-CoV-2 pseudovirus = assay: In vivo SARS-CoV-2 pseudovirus infection, lung luminescence (IVIS); set-up: species or system BALB/c mice; conditions: vs positive control
[1] = prior studies; cited from earlier work
IL-6, KC/GRO and MCP-1 = assay: Serum IL-6 and IL-6 downstream chemokines in CT26 tumor-bearing mice; type: in vivo; conditions: nimesulide alone 1.5 mg/kg and 5.3 mg/kg i.v.
Procedure: When the tumor volumes reached 25-50 mm^3, tumor-bearing mice were randomized to six groups: vehicle control, 50 mg/kg NIM-HA (eq. 1.3 mg/kg Nim) conjugate, 100 mg/kg (eq. 2.6 mg/kg Nim) NIM-HA conjugate, 200 mg/kg (eq. 5.2 mg/kg Nim) NIM-HA conjugate, 1.5 mg/kg nimesulide, and 5.3 mg/kg nimesulide. The vehicle or test samples were i.v. injected two times weekly for two weeks.
The serum level of IL-6 and two IL-6 downstream chemokines (KC/GRO and MCP-1) were measured following conventional protocols.

[2] = tested on: SARS-CoV-2 pseudotyped lentivirus; type: cell-based
[3] = tested on: IL-6 level in LPS-induced A549 cells; assay: IL-6 level in LPS-induced A549 cells (ELISA); type: cell-based, human; conditions: 0.5 μg/mL LPS, 4.94-400 μM, 48 hours, vs LPS alone, p<0.05
Procedure: In this example, A549 cells (human alveolar basal epithelial cells) were used to assess the effect of the present NIM-HA conjugate (CA102N) on the IL-6 level.
A549 cells in 600 μL F-12K medium were seeded in a density of 5×10^4 per 24-well and incubated overnight. The next day, the medium was discarded and replaced with a fresh medium containing 1 μg/mL LPS with 0, 0.1, 0.2, 0.4 and 0.8 mg/mL CA102N (eq. 0, 5.9, 11.8, 23.6 and 47.2 μM) conjugate or 5 μg/mL (12.7 μM) dexamethasone, which was then incubated for 48 hours. Then, 300 μL of supernatants were collected, and the IL-6 level was measured using a Human IL-6 Uncoated ELISA kit (Catalogue No. 88-7066; Invitrogen). Cells not treated with LPS are used as the negative control, whereas cells treated with LPS but not CA102N are used as the positive control. The results were summarized in FIG. 3, and the data were expressed as mean±standard deviation (SD).
A549 cells in 600 μL F-12K medium were seeded in a density of 2×10^4 per 24-well and incubated overnight. […] Then, 300 μL of supernatants were collected, and the IL-6 level was measured using Human IL-6 Uncoated ELISA kit (Catalogue No. 88-7066; Invitrogen). […] The results were summarized in FIG. 4, and the data were expressed as mean±standard deviation (SD).

## hyaluronic acid [HA]
SARS-CoV-2 pseudovirus; HA group (dose not given)
  SARS-CoV-2 pseudovirus infection (lung luminescence): no significant difference between the HA group and the positive control

## CS(=O)(=O)Nc1ccc([N+](=O)[O-])cc1Oc1ccccc1 [nimesulide, N-(4-nitro-2-phenoxyphenyl)methanesulfonamide]
[1]
  hepatotoxicity: significantly associated with hepatotoxicity
SARS-CoV-2 pseudovirus; 4 mg/kg nimesulide i.v. 1 hour before intra-tracheal pseudovirus, 24 hours, p<0.05
  SARS-CoV-2 pseudovirus infection (lung luminescence): inhibit significantly compared to the positive control
IL-6, KC/GRO and MCP-1
  IL-6 blockade: cannot elicit any effect on IL-6 blockade
[2]
  inhibition of SARS-CoV-2 pseudovirus entry (in words): cannot inhibit SARS-CoV-2 pseudovirus infection by blocking the viral entry

## CC(=O)NC1C(O)OC(CO)C(O)C1OC1OC(C(=O)Nc2ccc(NS(C)(=O)=O)c(Oc3ccccc3)c2)C(O)C(O)C1O (stereo not drawn) [NIM-HA disaccharide conjugate]
[3]
  IL-6 level: substantially decrease the IL-6 level in LPS-treated cells in a dose-dependent manner
